Literature values, collected in paper PMC3322358 (Chemistry & biology, 2008).

Tested on: CFTR
Settings: ref Muanprasat et al., 2004

Compound: O=C(CNc1ccc2ccccc2c1)N/N=C/c1cc(Br)c(O)c(Br)c1O [GlyH-101]
- time constant of CFTR channel block: 8 to 10 ms
